Results from patent US8999995B2, “Isotopically enriched arylsulfonamide CCR3 antagonists” (Axikin Pharmaceuticals, Inc., priority 2010, dated 2015).
Read-outs that look alike come from different tables or passages of the source.

What was measured:
CCR3 receptor = target: T1, CCR3 receptor (UniProt P51677); assay: CCR3 receptor binding assay ([125I]-labeled human eotaxin/CCL11 displacement on cells); conditions: 0.1 nM [125I]-labeled human eotaxin/CCL11, 60 min at room temperature
T1 sequence (P51677 1-355): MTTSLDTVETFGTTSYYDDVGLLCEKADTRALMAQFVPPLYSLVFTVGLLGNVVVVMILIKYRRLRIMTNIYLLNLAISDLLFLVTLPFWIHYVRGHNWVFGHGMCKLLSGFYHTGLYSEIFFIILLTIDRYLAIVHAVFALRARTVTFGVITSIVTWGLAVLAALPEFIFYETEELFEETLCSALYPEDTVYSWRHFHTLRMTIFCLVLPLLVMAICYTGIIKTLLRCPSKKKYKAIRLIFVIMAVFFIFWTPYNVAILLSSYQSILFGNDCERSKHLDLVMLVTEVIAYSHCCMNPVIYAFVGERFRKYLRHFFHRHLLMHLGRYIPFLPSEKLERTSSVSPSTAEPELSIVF
Protocol: Cells were washed once with PBS and resuspended in a binding buffer (25 mM HEPES pH 7.6, 5 mM MgCl2, 1 mM CaCl2, 0.5% BSA, 0.1% NaN3). […] of cell suspension (2×10^5 cells/well) and 0.1 nM [^125I]-labeled human eotaxin/CCL11 (2000 Ci/mmol specific activity) were mixed in a 96-well U-bottom polypropylene plate, and incubated for 60 min at room temperature for the binding reaction. The cell suspension was then transferred to a filtration plate (#MAFB, Millipore), and washed 3 times with the binding buffer containing 0.5 M NaCl, scintillant added, and the radioactivity was counted on a TopCount (Packard). For the determination of non-specific binding, the cell suspension and [^125I]-labeled human eotaxin/CCL11 were incubated in the presence of 500 nM of unlabeled human eotaxin/CCL11. See, Iino et al., “Molecular cloning and functional characterization of cynomolgus monkey (Macaca fascicularis) CC chemokine receptor, CCR3,” Cytokine 2002, 19, 276-286.

[1] = Pharmacokinetic studies in male CD1 mice (PO and IV dosing, plasma by HPLC and MS); format: in vivo, mouse; conditions: for Cmax / AUC(0-inf): male, CD1, mouse
Protocol: Pharmacokinetic properties of compounds A1 and A2 were determined using 144 male CD1 mice, each approximately 25 g. Animals were acclimated for 2-3 days prior to study. Body weights of animals were measured for randomization. Animals were randomized into groups of 3 mice by body weights. Compounds A1 and A2 were provided at 2 mg/mL for oral dosing and 0.2 mg/mL for intravenous dosing. Each mouse received 100 μL of a test compound (or a body weight justified dose (5 mL/kg) via PO or IV on dosing days. Approximately 1.0 mL of the whole blood was collected for each animal via cardiac puncture at each time points. The blood was collected into lithium heparin tubes, processed to plasma, and snap frozen in dry ice. Plasma samples were stored at −80° C. before analysis. The samples were further analyzed by HPLC and MS.

`[2H]c1c([2H])c(Sc2cc(Cl)cc(Cl)c2)c(S(=O)(=O)N2CCN(C3CCCC3)CC2)c([2H])c1C#N` [Compound A1] showed a Ki (CCR3 receptor) of 5.4 nM, a Cmax ([1]; oral, 10 mg/kg, 2 mg/mL oral, 0.2 mg/mL intravenous dosing, 5 mL/kg, read-out: Cmax) of 149 ng/mL and an AUC(0-inf) ([1]; oral, 10 mg/kg, AUCinf,norm, dose-normalised, heading: AUCinf,norm) of 106 ng·h/mL. For the same compound, the Cmax ([1]; oral, 10 mg/kg, dose-normalised, read-out: Cmax,norm) was 14.9 ng/mL, the AUC(0-inf) ([1]; oral, 10 mg/kg, read-out: AUCinf) was 1060 ng·h/mL and the MRT ([1]; mouse) was 6.9 h. It also gave a half-life ([1]; mouse) of 2.51 h, a bioavailability ([1]; mouse, PO versus IV) of 31.8% and a Tmax ([1]; mouse, oral, 10 mg/kg) of 0.5 h.
